{"source": "ChEMBL document CHEMBL2157953", "about": "“Identification of aminopyridazine-derived antineuroinflammatory agents effective in an Alzheimer's mouse model” (ACS Med Chem Lett, 2012)", "key": {"BV-2": {"tested_on": "BV-2", "assay": "Antineuroinflammatory activity in mouse BV2 cells assessed as inhibition of LPS-induced IL-1beta production after 16 hrs by ELISA", "assay_type": "functional, cell-based", "settings": "BV-2, 16 h"}, "Mus musculus [1]": {"tested_on": "Mus musculus", "assay": "Antialzheimer activity in Kunming mouse assessed as reversal of amyloid beta (1 to 42)-induced decrease of swimming time spent in target quadrant at 2.5 mg/kg, po qd measured on day 13 by morris water maze test", "assay_type": "functional, organism-based", "set-up": "dose 2.5 mg/kg"}, "Mus musculus [2]": {"tested_on": "Mus musculus", "assay": "Antialzheimer activity in Kunming mouse assessed as reversal of amyloid beta (1 to 42)-induced decrease of swimming percentage of path length at 2.5 mg/kg, po qd measured on day 13 by morris water maze test", "assay_type": "functional, organism-based", "set-up": "dose 2.5 mg/kg"}, "Mus musculus [3]": {"tested_on": "Mus musculus", "assay": "Antialzheimer activity in Kunming mouse assessed as reversal of amyloid beta (1 to 42)-induced impairments in spartial recognition memory at 2.5 mg/kg, po qd measured on day 3 and 4 by morris water maze test", "assay_type": "functional, organism-based", "set-up": "dose 2.5 mg/kg"}, "[4]": {"assay": "Oral bioavailability in rat at 2.5 mg/kg", "assay_type": "ADME, organism-based", "settings": "in vivo"}, "[5]": {"assay": "Tmax in rat brain at 2.5 mg/kg, po", "assay_type": "ADME, organism-based", "set-up": "dose 2.5 mg/kg, route oral"}, "Mus musculus [6]": {"tested_on": "Mus musculus", "assay": "Antialzheimer activity in Kunming mouse assessed as reversal of amyloid beta (1 to 42)-induced decrease of swimming time spent in target quadrant at 0.65 mg/kg, po qd measured on day 13 by morris water maze test", "assay_type": "functional, organism-based", "set-up": "dose 0.65 mg/kg"}, "Mus musculus [7]": {"tested_on": "Mus musculus", "assay": "Antialzheimer activity in Kunming mouse assessed as reversal of amyloid beta (1 to 42)-induced decrease of swimming percentage of path length at 0.656 mg/kg, po qd measured on day 13 by morris water maze test", "assay_type": "functional, organism-based", "set-up": "dose 0.656 mg/kg"}, "Mus musculus [8]": {"tested_on": "Mus musculus", "assay": "Antialzheimer activity in Kunming mouse assessed as reversal of amyloid beta (1 to 42)-induced impairments in spartial recognition memory at 0.65 mg/kg, po qd measured on day 3 and 4 by morris water maze test", "assay_type": "functional, organism-based", "set-up": "dose 0.65 mg/kg"}}, "note": "The source made the active and inactive calls. No cut-off for these calls is given here."}
{"smiles": "Cc1cc(-c2cccnc2)nnc1N1CCN(c2ncccn2)CC1", "values": [{"measurement": "IC50", "setting": "BV-2", "result": "> 100", "unit": "µM"}]}
{"smiles": "Cc1cc(Cl)nnc1N1CCN(c2ncccn2)CC1", "values": [{"measurement": "IC50", "setting": "BV-2", "result": "> 100", "unit": "µM"}]}
{"smiles": "Cc1cc(-c2ccsc2)nnc1N1CCN(c2ncccn2)CC1", "values": [{"measurement": "Activity", "setting": "Mus musculus [1]", "result": "Active"}, {"measurement": "Activity", "setting": "Mus musculus [2]", "result": "Active"}, {"measurement": "Activity", "setting": "Mus musculus [3]", "result": "Active"}, {"measurement": "IC50", "setting": "BV-2", "result": 2.4, "unit": "µM"}, {"measurement": "bioavailability", "setting": "[4]", "result": 17.4, "unit": "%"}, {"measurement": "Tmax", "setting": "[5]", "result": 19.8, "unit": "min"}]}
{"smiles": "Cc1cc(C(C)C)nnc1N1CCN(c2ncccn2)CC1", "values": [{"measurement": "IC50", "setting": "BV-2", "result": "> 100", "unit": "µM"}]}
{"smiles": "Cc1cc(-c2cc3ccccc3s2)nnc1N1CCN(c2ncccn2)CC1", "values": [{"measurement": "IC50", "setting": "BV-2", "result": 24.9, "unit": "µM"}]}
{"smiles": "COc1cc2c(cc1OC)C(=O)C(CC1CCN(Cc3ccccc3)CC1)C2", "note": "(configuration not stated)", "values": [{"measurement": "Activity", "setting": "Mus musculus [6]", "result": "Active"}, {"measurement": "Activity", "setting": "Mus musculus [7]", "result": "Active"}, {"measurement": "Activity", "setting": "Mus musculus [8]", "result": "Active"}]}
{"smiles": "Cc1cc(-c2ccc(C(F)(F)F)cc2)nnc1N1CCN(c2ncccn2)CC1", "values": [{"measurement": "IC50", "setting": "BV-2", "result": 37.4, "unit": "µM"}]}
{"smiles": "COc1ccc(-c2cc(C)c(N3CCN(c4ncccn4)CC3)nn2)cc1", "values": [{"measurement": "IC50", "setting": "BV-2", "result": 5.2, "unit": "µM"}]}
{"smiles": "Cc1cc(-c2ccncc2)nnc1N1CCN(c2ncccn2)CC1", "values": [{"measurement": "IC50", "setting": "BV-2", "result": "> 100", "unit": "µM"}]}
{"smiles": "Cc1cc(-c2ccnc3ccccc23)nnc1N1CCN(c2ncccn2)CC1", "values": [{"measurement": "IC50", "setting": "BV-2", "result": 66.5, "unit": "µM"}]}
{"smiles": "COc1cccc(-c2cc(C)c(N3CCN(c4ncccn4)CC3)nn2)c1", "values": [{"measurement": "IC50", "setting": "BV-2", "result": 2.6, "unit": "µM"}]}
{"smiles": "Cc1cc(C)c(N2CCN(c3ncccn3)CC2)nn1", "values": [{"measurement": "IC50", "setting": "BV-2", "result": "> 100", "unit": "µM"}]}
{"smiles": "Cc1ccc(-c2cc(C)c(N3CCN(c4ncccn4)CC3)nn2)cc1", "values": [{"measurement": "IC50", "setting": "BV-2", "result": 17.2, "unit": "µM"}]}
{"smiles": "Cc1cc(-c2ccc3[nH]ccc3c2)nnc1N1CCN(c2ncccn2)CC1", "values": [{"measurement": "IC50", "setting": "BV-2", "result": 85.1, "unit": "µM"}]}
{"smiles": "Cc1ccnnc1N1CCN(c2ncccn2)CC1", "values": [{"measurement": "IC50", "setting": "BV-2", "result": "> 100", "unit": "µM"}]}
{"smiles": "Cc1cc(-c2ccccc2)nnc1N1CCN(c2ncccn2)CC1", "values": [{"measurement": "IC50", "setting": "BV-2", "result": 11.4, "unit": "µM"}]}
{"smiles": "Cc1cc(-c2cncnc2)nnc1N1CCN(c2ncccn2)CC1", "values": [{"measurement": "IC50", "setting": "BV-2", "result": "> 100", "unit": "µM"}]}
{"smiles": "Cc1cc(-c2cccc(F)c2)nnc1N1CCN(c2ncccn2)CC1", "values": [{"measurement": "IC50", "setting": "BV-2", "result": 33.5, "unit": "µM"}]}
{"smiles": "Cc1cc(-c2ccc(F)cc2)nnc1N1CCN(c2ncccn2)CC1", "values": [{"measurement": "IC50", "setting": "BV-2", "result": 76.3, "unit": "µM"}]}
{"smiles": "COc1ncc(-c2cc(C)c(N3CCN(c4ncccn4)CC3)nn2)c(OC)n1", "values": [{"measurement": "IC50", "setting": "BV-2", "result": "> 100", "unit": "µM"}]}
